Laboratory results taken from the supplement of paper PMC10627819.

How the values were obtained:
[1] = test system: S. aureus DSM 20231; assay: Bliss interaction score (quartile over a dose matrix) (fitness difference); higher = more antagonism (negative = synergy)
Summary of the method: (§1)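 At entry into stationary phase, OD595 was recorded and divided by the robust mean of the no-drug wells on that plate, with any value above 1 set to 1. This gives the fitness measure used throughout. Single-drug fitness was inferred from combination data, and the Bliss score, observed minus product-expected fitness, is shown as quartiles across technical, biological and donor/recipient replicates.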

[2] = test system: S. aureus Newman; assay: as above
Summary of the method: as §1

[3] = test system: B. subtilis 168; assay: as above
Summary of the method: as §1

[4] = test system: S. pneumoniae D39V; assay: as above
Summary of the method: as §1

[5] = test system: S. aureus DSM 20231; assay: fitness (endpoint OD595 vs no drug) (fraction); higher = more growth
Summary of the method: (§2)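 Plates with 384 wells were inoculated at OD595 0.01 using 30 µl of TSB, LB Lennox or CY, or 55 µl for S. pneumoniae. Incubation was at 37 °C, with OD595 measured every 30 min for 14 h. Fitness is the stationary-phase transition optical density over the robust mean of no-drug control wells, after first-reading background subtraction; it is capped at 1.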

[6] = test system: S. aureus Newman; assay: as above
Summary of the method: as §2

[7] = test system: S. pneumoniae D39V; assay: as above
Summary of the method: as §2
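For Bliss interaction score (quartile over a dose matrix) in this document: first quartile when negative (synergy) and third quartile when positive (antagonism).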

CC1(C)S[C@@H]2[C@H](NC(=O)[C@H](N)c3ccc(O)cc3)C(=O)N2[C@H]1C(=O)O [Amoxicillin] + CCCCCCCCCC(=O)N[C@@H]1[C@H]([C@@H]([C@H](O[C@H]1OC2=C3C=C4C=C2OC5=C(C=C(C=C5)[C@H]([C@H]6C(=O)N[C@@H](C7=C(C(=CC(=C7)O)OC8[C@H]([C@H]([C@@H]([C@H](O8)CO)O)O)O)C9=C(C=CC(=C9)[C@H](C(=O)N6)NC(=O)[C@@H]4NC(=O)[C@@H]1C2=CC(=CC(=C2)OC2=C(C=CC(=C2)[C@H](C(=O)N[C@H](CC2=CC(=C(O3)C=C2)Cl)C(=O)N1)N)O)O)O)C(=O)O)O[C@H]1[C@@H]([C@H]([C@@H]([C@H](O1)CO)O)O)NC(=O)C)Cl)CO)O)O [Teicoplanin]
main component drawn
Details	Bliss interaction score
[1]	0.0453
[2]	0.0682
[3]	-0.1
[4]	-0.0856

fitness, main component drawn
Details	first compound 0.0625 µg/mL	first compound 0.125 µg/mL	first compound 0.25 µg/mL
[5], partner 0.1562 µg/mL	0.575	0.408	0.199
[5], partner 0.3125 µg/mL	0.658	–	–
[5], partner 0.625 µg/mL	0.619	–	0.0287
[6], partner 0.1562 µg/mL	0.947	0.94	0.848
[6], partner 0.3125 µg/mL	0.898	0.913	0.815
[6], partner 0.625 µg/mL	0.823	0.853	0.73

fitness, one replicate, main component drawn
Details	partner 0.1562 µg/mL	partner 0.3125 µg/mL	partner 0.62 µg/mL	partner 0.625 µg/mL	partner 1.24 µg/mL	partner 2.48 µg/mL
[5], first compound 0.5 µg/mL	0.0188	0.0061	–	0.0019	–	–
[6], first compound 0.125 µg/mL	–	–	0.747	–	0.689	0.396
[6], first compound 0.25 µg/mL	–	–	0.725	–	0.785	0.491
[6], first compound 0.5 µg/mL	–	–	0.724	–	0.684	0.462

CC1(C)S[C@@H]2[C@H](NC(=O)[C@H](N)c3ccc(O)cc3)C(=O)N2[C@H]1C(=O)O [Amoxicillin] + CC[C@H]1OC(=O)[C@H](C)[C@@H](O[C@H]2C[C@@](C)(OC)[C@@H](O)[C@H](C)O2)[C@H](C)[C@@H](O[C@@H]2O[C@H](C)C[C@H](N(C)C)[C@H]2O)[C@](C)(O)C[C@@H](C)CN(C)[C@H](C)[C@@H](O)[C@]1(C)O [Azithromycin]
Details	Bliss interaction score
[1]	-0.0724
[2]	-0.0697
[3]	-0.0431
[4]	0.156

fitness
Details	first compound 0.0625 µg/mL	first compound 0.125 µg/mL	first compound 0.25 µg/mL
[5], partner 0.125 µg/mL	0.527	–	0.0737
[5], partner 0.25 µg/mL	0.614	–	0.0516
[5], partner 0.5 µg/mL	0.277	0.108	0.0273
[6], partner 0.125 µg/mL	0.788	0.795	0.757
[6], partner 0.25 µg/mL	0.816	0.805	0.71
[6], partner 0.5 µg/mL	0.681	–	–

[5], first compound 0.5 µg/mL, one replicate
Details	fitness
partner 0.125 µg/mL	0.0165
partner 0.25 µg/mL	0.004
partner 0.5 µg/mL	0.0043

CC1(C)S[C@@H]2[C@H](NC(=O)[C@H](N)c3ccc(O)cc3)C(=O)N2[C@H]1C(=O)O [Amoxicillin] + O=C(N[C@H](CO)[C@H](O)c1ccc([N+](=O)[O-])cc1)C(Cl)Cl [Chloramphenicol]
Details	Bliss interaction score
[1]	-0.0444
[2]	-0.108
[3]	0.122
[4]	0.165

fitness
Details	first compound 0.0625 µg/mL	first compound 0.125 µg/mL	first compound 0.25 µg/mL
[5], partner 0.75 µg/mL	0.446	–	0.041
[5], partner 1.5 µg/mL	0.323	0.162	0.0389
[5], partner 3 µg/mL	0.0721	0.0829	0.0294
[6], partner 0.75 µg/mL	0.724	0.718	–
[6], partner 3 µg/mL	–	0.139	–

[5], first compound 0.5 µg/mL, one replicate
Details	fitness
partner 0.75 µg/mL	0.0382
partner 1.5 µg/mL	0.005
partner 3 µg/mL	0.0307

CO/N=C(\C(=O)N[C@@H]1C(=O)N2C(C(=O)[O-])=C(C[N+]3(C)CCCC3)CS[C@H]12)c1csc(N)n1 [Cefepime] + CC1=C(C(=O)O)N2C(=O)[C@@H](NC(=O)[C@H](N)c3ccccc3)[C@H]2SC1 [Cephalexin]
Details	Bliss interaction score
[1]	0.0619
[2]	-0.0529
[3]	0.0474
[4]	-0.105

fitness
Details	first compound 0.007 µg/mL	first compound 0.014 µg/mL	first compound 0.028 µg/mL	first compound 0.125 µg/mL	first compound 0.25 µg/mL	first compound 0.5 µg/mL
[6], partner 0.25 µg/mL	–	–	–	0.941	0.876	0.843
[6], partner 0.5 µg/mL	–	–	–	0.939	0.867	0.8
[6], partner 1 µg/mL	–	–	–	0.969	0.922	0.861
[7], partner 1 µg/mL	0.93	0.923	0.584	–	–	–
[7], partner 2 µg/mL	0.101	0.0733	0.0074	–	–	–
[7], partner 4 µg/mL	0.0209	0.0355	0.015	–	–	–

fitness, [7], one replicate
Details	first compound 0.0078 µg/mL	first compound 0.0155 µg/mL	first compound 0.031 µg/mL
partner 0.125 µg/mL	≥ 1	0.94	0.434
partner 0.25 µg/mL	0.988	0.96	0.529
partner 0.5 µg/mL	≥ 1	0.925	0.297
